Measured values published in patent publication US10772931B2, “Collagen binding synthetic peptidoglycans for treatment of endothelial dysfunction” (Purdue Research Foundation, priority 2014, dated 2020).

Tests used:
[1] = test system: Human aortic endothelial cells (EC); assay: Metabolic activity (CellTiter 96 AQueous One, MTS), EC monolayers; format: cell-based; details: 10 ng/mL PDGF alone, 24 hrs
Description: (§1) Human aortic endothelial cells (EC, Invitrogen) were cultured in Media 200 (M200, Invitrogen), supplemented with (all from Invitrogen) 2% fetal bovine serum (FBS), 1 μg/mL hydrocortisone, 10 ng/mL epidermal growth factor (EGF), 3 ng/mL basic fibroblast growth factor (FGF), and 10 μg/mL heparin. Unless otherwise noted, cells were initially seeded at 3×10^5 cells/cm^2 in Ibidi angiogenesis μ-slide (Ibidi) and allowed to proliferate for 24 hrs to establish a confluent monolayer, prior to the application of treatments to the EC cultures. Cells were used between passage numbers 3 and 8 for all assays and maintained at 37° C. with 5% CO2.
Cultures were incubated in the presence of 0, 0.01, 0.1, 1, or 10 μM DS-SILY20, with and without 10 ng/mL PDGF, for 24 hrs. The metabolic activity of the cells was determined using the CellTiter 96 AQueous One Solution Cell Proliferation Assay (Promega). Briefly, media was mixed with 3-(4,5-dimethylthiazol-2-yl)-5-(3-carboxymethoxyphenyl)-2-(4-sulfophenyl)-2H-tetrazolium, inner salt (MTS) and cultures were re-incubated for 2 hrs at 37° C. with 5% CO2. The media containing MTS was then transferred into a 96-well plate and absorbance at 490 nm was measured.

[2] = test system: hyperplastic EC-SMC co-cultures; assay: Metabolic activity (MTS), hyperplastic EC-SMC co-cultures; format: cell-based, human; details: PDGF stimulation alone
Description: (§2) To better mimic the physiology of the vessel wall and further investigate the effects of therapeutics on ECs in a biologically relevant manner, two EC-SMC co-culture models, designed to mimic either healthy or diseased vasculature, were established. ECs were cultured as stated previously. Human coronary artery smooth muscle cells (SMC, Invitrogen) were cultured in Media 231 (M231, Invitrogen), supplemented with (all from Invitrogen) 4.9% FBS, 2 ng/mL FGF, […], 5 ng/mL heparin, 5 μg/mL insulin, and 0.2 μg/mL bovine serum albumin. SMCs were seeded at 5×10^4 cells/cm^2 in Ibidi angiogenesis μ-slide and allowed to proliferate for 24 hrs to allow the formation of multilayered cell constructs. Media was removed and cultures were treated either with proliferative media, as described above, or contractile media to induce a quiescent phenotype, for 24 hrs. […]
(§3) Cultures were incubated in the presence of 0, 0.01, 0.1, 1, or 10 μM DS-SILY20, with and without 10 ng/mL PDGF, for 24 hrs. The metabolic activity of the cells was determined using the CellTiter 96 AQueous One Solution Cell Proliferation Assay (Promega). […] The media containing MTS was then transferred into a 96-well plate and absorbance at 490 nm was measured.

[3] = test system: quiescent EC-SMC co-cultures; assay: Metabolic activity (MTS), quiescent EC-SMC co-cultures; format: cell-based, human; details: PDGF stimulation alone
Description: as §2, §3

PDGF receptor β (PDGFRβ) = assay: PDGFRβ phosphorylation in ECs (sandwich ELISA); format: cell-based, human; details: EC monolayers, PDGF treatment alone (10 ng/mL)
Description: Cells were incubated in the presence of DS-SILY20 with and without 10 ng/mL PDGF for 60 mins prior to washing with ice cold TBS and […] solubilized in lysis buffer (1% NP-40 Alternative, 20 mM Tris, 137 mM NaCl, 10% glycerol, 2 mM EDTA, 1 mM activated sodium orthovanadate, 10 μg/mL Aprotinin, and 10 μg/mL Leupeptin). Lysates were processed at 4° C. for 30 mins prior to centrifugation for 5 mins at 2000×g to remove membrane components. Sandwich ELISAs (all from R&D systems) were utilized to measure total PDGF receptor β (PDGFRβ) and total phosphotyrosine PDGFRβ. All assays were performed following the manufacturer's protocol.

[4] = test system: Human aortic endothelial cells (EC); assay: EC proliferation (Hoescht 33342 nuclei stain); format: cell-based; details: PDGF alone (10 ng/mL), 24 hrs
Description: as §1
Cultures were incubated in the presence of DS-SILY20 with or without 10 ng/mL PDGF for 24 hrs. Cells were nuclei stained with Hoescht 33342 and […] to determine the effect of DS-SILY20 and PDGF on cell proliferation.

[5] = test system: Human aortic endothelial cells (EC); assay: EC migration on collagen (Oris Cell Migration Kit); format: cell-based; details: PDGF stimulation alone (10 ng/mL), 48 hrs
Description: Fibrillar collagen was coated in wells of 96-well Oris Cell Migration Kit (Platypus Technologies, Madison). Stoppers were inserted into the plate to block an inner circular portion of the well. ECs were seeded at 5×10^3 cells/well and grown to confluence in the outer portion of the well. After 48 hrs, the stoppers in the wells were removed and ECs were stained with cell tracker green (Invitrogen). To determine the effects of treatments on migration alone, ECs were dosed with 25 μg/mL mitomycin C (Sigma) for 30 mins to inhibit proliferation. Various DS-SILY20 concentrations, solubilized in M200+LSGS, were then incubated on the exposed collagen surface in the inner portion of the well for 15 min at 37° C. Unbound DS-SILY20 was rinsed from the surface and cell media, with or without 10 ng/mL PDGF, was returned to the wells. ECs were allowed to migrate from the outer to the inner portion of the wells for 48 hrs. At 48 hrs, fluorescence measurements of the center of each well were measured using a mask provided with the migration kit such that only the treated inner circular portion of the well was measured.

interleukin-6 (IL-6) [6] = assay: IL-6 expression in EC monolayers (Pro-Inflammatory I kit); format: cell-based, human; details: 10 ng/mL PDGF alone, 24 hrs
Description: as §1
Cells were incubated in the presence of DS-SILY20 with or without 10 ng/mL PDGF for 24 hrs. Media was removed from the cultures and a Pro-Inflammatory I kit (Meso Scale Discovery) was used to analyze cytokine production from EC monolayers, hyperplastic co-cultures, and quiescent co-cultures according to manufacturer's instructions. Briefly, plates were warmed to room temperature and incubated with 25 μL of samples and standards for 2 hrs at room temperature with vigorous shaking. […] After washing three times with PBS with 0.05% Tween-20, 2× read buffer was added to the plate and imaged using a Sector Imager 2400A (Meso Scale Discovery). […] Data were analyzed using the MSD Discovery Workbench Software.

E-selectin [7] = assay: E-selectin production in EC monolayers (Vascular Injury Marker I kit); format: cell-based, human; details: 10 ng/mL PDGF alone
Description: as §1
(§4) Following treatment with DS-SILY20 with or without 10 ng/mL PDGF for 24 hrs, cells were washed twice with ice cold PBS and solubilized in lysis buffer (9 M urea, 4% CHAPS, and phosphatase inhibitor cocktail-1 in Millipore water). Lysates were processed at 4° C. for 30 mins prior to centrifugation for 20 mins at 18,000×g to remove membrane components. A BCA assay protein kit (Pierce) was used to quantify total protein. […] After washing three times with PBS with 0.05% Tween-20, 2× Read buffer was added to the plate and imaged using a Sector Imager 2400A. Data were analyzed using the MSD Discovery Workbench Software.

P-selectin [8] = assay: P-selectin production in EC monolayers (Vascular Injury Marker I kit); format: cell-based, human; details: PDGF alone
Description: as §1, §4

thrombomodulin [9] = assay: Thrombomodulin production in EC monolayers (Vascular Injury Marker I kit); format: cell-based, human; details: PDGF alone
Description: as §1, §4

ERK-1/2 = ERK-1/2 phosphorylation in EC monolayers; format: cell-based, human; details: 10 ng/mL PDGF alone, 10 mins
Description: (§5) The phosphorylation of mitogen-activated protein kinases (MAPK), including extracellular signal-related kinase (ERK) and p38 MAPK (p38), was examined. Cells were incubated in the presence of DS-SILY20 with or without 10 ng/mL PDGF for […] prior to washing with ice cold tris buffered saline (TBS) and solubilized in lysis buffer (150 mM NaCl, 20 mM Tris, 1 mM EDTA, 1 mM EGTA, 1% Triton-X-100, plus protease inhibitors and phosphatase inhibitors). Lysates were processed at 4° C. for 30 mins prior to centrifugation for 20 mins at 18,000×g to remove membrane components. Phospho-p38 (Thr180/Tyr182) and phospho-ERK-1/2 (Thr/Tyr: 202/204; 185/187) levels were evaluated using the MAP Kinase Whole Cell Lysate kit (Meso Scale Discovery); Total p38 and total ERK-1/2 were determined via MAP Kinase (Total Protein) Whole Cell Lysate Kit (Meso Scale Discovery), according to manufacturer's instructions. Briefly, plates were warmed to room temperature and incubated with 25 μL of samples for 3 hrs at room temperature with vigorous shaking. Following gentle rinsing of the wells, the detection antibody was then added and incubated for 1 hr at room temperature with vigorous shaking. After washing three times with TBS, 2× read buffer was added to the plate and imaged using a Sector Imager 2400A. Data were analyzed using the MSD Discovery Workbench Software. […]

p38 MAPK (p38) = assay: p38 MAPK phosphorylation in EC monolayers; format: cell-based, human; details: PDGF alone
Description: as §5

interferon-γ (IFN-γ) [10] = assay: IFN-γ production, hyperplastic co-cultures; format: cell-based, human; details: 10 ng/mL PDGF alone
Description: as §2
(§6) Cells were incubated in the presence of DS-SILY20 with or without 10 ng/mL PDGF for 24 hrs. […] After washing three times with PBS with 0.05% Tween-20, 2× read buffer was added to the plate and imaged using a Sector Imager 2400A (Meso Scale Discovery). […] Data were analyzed using the MSD Discovery Workbench Software.

interleukin-6 (IL-6) [11] = assay: IL-6 production, hyperplastic co-cultures; format: cell-based, human; details: 10 ng/mL PDGF alone
Description: as §2, §6

[12] = test system: tumor necrosis factor-α (TNF-α); assay: TNF-α production, hyperplastic co-cultures; format: cell-based, human; details: 10 ng/mL PDGF alone
Description: as §2, §6

interferon-γ (IFN-γ) [13] = assay: IFN-γ production, quiescent co-cultures; format: cell-based, human; details: 10 ng/mL PDGF alone
Description: as §2, §6

[14] = test system: tumor necrosis factor-α (TNF-α); assay: TNF-α production, quiescent co-cultures; format: cell-based, human; details: 10 ng/mL PDGF alone
Description: as §2, §6

E-selectin [15] = assay: E-selectin production, hyperplastic co-cultures; format: cell-based, human; details: PDGF alone
Description: as §2
as §4, with “Lysates were processed at 4° C. for 30 mins prior to centrifugation for 20 mins at 18,000×g to remove membrane components.” left out

P-selectin [16] = assay: P-selectin production, hyperplastic co-cultures; format: cell-based, human; details: PDGF alone
Description: as §2
as §4, with “Lysates were processed at 4° C. for 30 mins prior to centrifugation for 20 mins at 18,000×g to remove membrane components.” left out

thrombomodulin [17] = assay: Thrombomodulin production, hyperplastic co-cultures; format: cell-based, human; details: PDGF alone
Description: as §2
as §4, with “Lysates were processed at 4° C. for 30 mins prior to centrifugation for 20 mins at 18,000×g to remove membrane components.” left out

E-selectin [18] = assay: E-selectin production, quiescent co-cultures; format: cell-based, human; details: PDGF alone
Description: as §2
as §4, with “Lysates were processed at 4° C. for 30 mins prior to centrifugation for 20 mins at 18,000×g to remove membrane components.” left out

P-selectin [19] = assay: P-selectin production, quiescent co-cultures; format: cell-based, human; details: PDGF alone
Description: as §2
as §4, with “Lysates were processed at 4° C. for 30 mins prior to centrifugation for 20 mins at 18,000×g to remove membrane components.” left out

thrombomodulin [20] = assay: Thrombomodulin production, quiescent co-cultures; format: cell-based, human; details: PDGF alone
Description: as §2
as §4, with “Lysates were processed at 4° C. for 30 mins prior to centrifugation for 20 mins at 18,000×g to remove membrane components.” left out

phospho-PDGFRβ levels (PDGF receptor β (PDGFRβ)): significantly increased
Substance: platelet-derived growth factor [PDGF]
metabolic activity of ECs [1]: did not influence
metabolic activity [2]: not impacted
metabolic activity [3]: not impacted
EC proliferation [4]: significantly increased
enhancement of EC migration [5]: 40.3%
IL-6 production vs no treatment controls (interleukin-6 (IL-6) [6]): did not alter
E-selectin production vs no treatment controls (E-selectin [7]): did not alter
P-selectin expression (P-selectin [8]): induced
thrombomodulin expression (thrombomodulin [9]): induced
ERK-1/2 phosphorylation vs no treatment controls (ERK-1/2): increased
phosphorylation of p38 (p38 MAPK (p38)): did not alter
production of IFN-γ vs no treatment controls (interferon-γ (IFN-γ) [10]): significantly increased
production of IL-6 vs no treatment controls (interleukin-6 (IL-6) [11]): significantly increased
production of TNF-α vs no treatment controls [12]: significantly increased
production of IFN-γ vs no treatment controls (interferon-γ (IFN-γ) [13]): significantly increased
production of TNF-α vs no treatment controls [14]: significantly increased
E-selectin expression (E-selectin [15]): did not stimulate
P-selectin production (P-selectin [16]): significantly increased
thrombomodulin production (thrombomodulin [17]): significantly increased
E-selectin expression (E-selectin [18]): did not stimulate
P-selectin production (P-selectin [19]): significantly increased
thrombomodulin production (thrombomodulin [20]): significantly increased
